Experiments:
[1] = biological target: T1, 5-hydroxytryptamine receptor 2C (Homo sapiens, UniProt P28335); experiment: DRUGMATRIX: Serotonin (5-Hydroxytryptamine) 5-HT2C radioligand binding (ligand: [3H] Mesulergine); format: cell membranes, CHO-K1, Membrane; settings: cho-k1; Not Active = under 50% inhibition at 10 µM
T1 sequence (P28335 whole entry): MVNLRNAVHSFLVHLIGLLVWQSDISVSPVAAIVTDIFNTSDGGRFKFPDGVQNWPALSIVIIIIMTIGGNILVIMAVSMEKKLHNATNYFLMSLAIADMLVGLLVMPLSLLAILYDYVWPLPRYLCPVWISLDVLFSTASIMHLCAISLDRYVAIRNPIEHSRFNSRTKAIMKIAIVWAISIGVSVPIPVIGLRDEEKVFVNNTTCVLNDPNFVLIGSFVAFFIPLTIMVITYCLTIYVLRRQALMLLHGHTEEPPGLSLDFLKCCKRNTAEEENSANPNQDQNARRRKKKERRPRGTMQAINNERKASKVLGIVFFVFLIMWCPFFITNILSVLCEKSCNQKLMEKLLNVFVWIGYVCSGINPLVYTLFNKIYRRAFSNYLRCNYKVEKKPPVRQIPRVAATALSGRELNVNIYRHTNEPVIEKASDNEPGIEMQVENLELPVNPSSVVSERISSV

D(4) dopamine receptor = biological target: T2, D(4) dopamine receptor (Homo sapiens, UniProt P21917); experiment: DRUGMATRIX: Dopamine D4.2 radioligand binding (ligand: [3H] Spiperone); format: cell membranes, Membrane; settings: cho-k1; Not Active = under 50% inhibition at 10 µM
T2 sequence (P21917 whole entry): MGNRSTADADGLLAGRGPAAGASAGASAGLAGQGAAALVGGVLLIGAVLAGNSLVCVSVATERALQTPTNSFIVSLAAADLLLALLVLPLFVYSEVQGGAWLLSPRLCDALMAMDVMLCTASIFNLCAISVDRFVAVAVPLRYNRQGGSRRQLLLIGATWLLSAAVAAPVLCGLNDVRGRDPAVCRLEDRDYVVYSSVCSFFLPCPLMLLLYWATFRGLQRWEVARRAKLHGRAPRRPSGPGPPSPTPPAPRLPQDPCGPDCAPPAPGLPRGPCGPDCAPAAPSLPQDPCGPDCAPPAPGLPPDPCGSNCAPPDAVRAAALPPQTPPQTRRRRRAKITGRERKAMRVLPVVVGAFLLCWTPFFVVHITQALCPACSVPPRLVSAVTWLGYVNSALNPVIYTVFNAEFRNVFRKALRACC

[2] = DRUGMATRIX: Purinergic P2X radioligand binding (ligand: [3H] alpha, beta-Methylene-ATP); format: cell membranes, Oryctolagus cuniculus, New Zealand albino, Urinary bladder, Membrane; settings: Not Active = under 50% inhibition at 10 µM
[3] = DRUGMATRIX: Calcium Channel Type L, Phenylalkylamine radioligand binding (ligand: [3H] (-)-Desmethoxyverapamil (D-888)); format: cell membranes, Rattus norvegicus, Wistar, Brain, Membrane; settings: Not Active = under 50% inhibition at 10 µM
[4] = DRUGMATRIX: Sigma2 radioligand binding (ligand: [3H] Ifenprodil); format: cell membranes, Rattus norvegicus, Wistar, Brain, Membrane; settings: Not Active = under 50% inhibition at 10 µM
[5] = biological target: Prostaglandin G/H synthase 1 (Homo sapiens, UniProt P23219); experiment: biochemical; format: tissue-based, Platelet;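 further: inhibition of COX-1 enzyme activity, with arachidonic acid supplied as substrate; in other assays of this panel Not Active means under 50% inhibition at 10 µM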
Prostaglandin G/H synthase 1, sequence (P23219 whole entry): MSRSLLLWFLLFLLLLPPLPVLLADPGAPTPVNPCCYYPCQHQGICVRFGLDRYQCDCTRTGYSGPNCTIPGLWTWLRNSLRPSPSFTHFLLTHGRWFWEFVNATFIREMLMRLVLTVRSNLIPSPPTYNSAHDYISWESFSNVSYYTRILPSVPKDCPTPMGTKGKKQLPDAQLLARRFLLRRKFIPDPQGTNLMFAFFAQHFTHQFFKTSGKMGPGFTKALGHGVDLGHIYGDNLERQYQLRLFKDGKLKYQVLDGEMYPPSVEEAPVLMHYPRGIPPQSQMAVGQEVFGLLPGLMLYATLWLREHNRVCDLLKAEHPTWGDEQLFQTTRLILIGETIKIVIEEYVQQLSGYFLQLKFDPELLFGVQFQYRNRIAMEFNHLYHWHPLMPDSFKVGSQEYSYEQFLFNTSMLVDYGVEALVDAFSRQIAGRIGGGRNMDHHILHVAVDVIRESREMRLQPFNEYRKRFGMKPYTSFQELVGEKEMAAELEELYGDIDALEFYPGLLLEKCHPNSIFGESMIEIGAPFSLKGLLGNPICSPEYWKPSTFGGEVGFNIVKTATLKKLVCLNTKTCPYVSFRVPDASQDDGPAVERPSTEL

SMILES | IC50 [1] | IC50 (D(4) dopamine receptor) | IC50 [2] | Ki [2] | IC50 [3] | Ki [3] | IC50 [4] | Ki [4] | IC50 ([5]; platelet) | IC50 ([3]; read-out: IC50) [nM] | Ki ([3]; read-out: Ki) [nM] | IC50 ([5]; read-out: IC50) [nM] | IC50 ([4]; read-out: IC50) [nM] | Ki ([4]; read-out: Ki) [nM]
CC1(C)O[C@@H]2C[C@H]3[C@@H]4C[C@H](F)C5=CC(=O)C=C[C@]5(C)[C@@]4(F)[C@@H](O)C[C@]3(C)[C@]2(C(=O)CO)O1 [FLUOCINOLONE ACETONIDE] | Not Active | Not Active | Not Active | Not Active | Not Active | Not Active | Not Active | Not Active | Not Active | – | – | – | – | –
CC1(C)O[C@@H]2C[C@H]3[C@@H]4C[C@H](F)C5=CC(=O)CC[C@]5(C)[C@H]4[C@@H](O)C[C@]3(C)[C@]2(C(=O)CO)O1 [FLURANDRENOLIDE] | Not Active | Not Active | Not Active | Not Active | Not Active | Not Active | Not Active | Not Active | Not Active | – | – | – | – | –
CN(C)c1ccc(C(=C2C=CC(=[N+](C)C)C=C2)c2ccc(N(C)C)cc2)cc1.[Cl-] [GENTIAN VIOLET] | Not Active | Not Active | Not Active | Not Active | – | – | Not Active | Not Active | Not Active | 3440 | 3350 | – | – | –
Cc1ccc(S(=O)(=O)NC(=O)NN2CC3CCCC3C2)cc1 (configuration not stated) [GLICLAZIDE] | Not Active | Not Active | Not Active | Not Active | Not Active | Not Active | Not Active | Not Active | Not Active | – | – | – | – | –
NC(=O)NO [HYDROXYUREA] | Not Active | Not Active | Not Active | Not Active | Not Active | Not Active | Not Active | Not Active | Not Active | – | – | – | – | –
CCc1c2c(nc3ccc(OC(=O)N4CCC(N5CCCCC5)CC4)cc13)-c1cc3c(c(=O)n1C2)COC(=O)[C@]3(O)CC [IRINOTECAN] | Not Active | Not Active | Not Active | Not Active | Not Active | Not Active | Not Active | Not Active | Not Active | – | – | – | – | –
Nc1ccn([C@@H]2CS[C@H](CO)O2)c(=O)n1 [LAMIVUDINE] | Not Active | Not Active | Not Active | Not Active | Not Active | Not Active | Not Active | Not Active | Not Active | – | – | – | – | –
O=S(=O)([O-])CCS.[Na+] [MESNA] | Not Active | Not Active | Not Active | Not Active | Not Active | Not Active | Not Active | Not Active | Not Active | – | – | – | – | –
C#C[C@]1(O)CC[C@H]2[C@@H]3CCc4cc(OC)ccc4[C@H]3CC[C@@]21C [MESTRANOL] | Not Active | Not Active | Not Active | Not Active | Not Active | Not Active | Not Active | Not Active | Not Active | – | – | – | – | –
CC(=O)Nc1cccc(O)c1 [METACETAMOL] | Not Active | Not Active | Not Active | Not Active | Not Active | Not Active | Not Active | Not Active | Not Active | – | – | – | – | –
Cc1ncc([N+](=O)[O-])n1CCO [METRONIDAZOLE] | Not Active | Not Active | Not Active | Not Active | Not Active | Not Active | Not Active | Not Active | Not Active | – | – | – | – | –
CC(C)(C(=O)c1cccnc1)c1cccnc1 [METYRAPONE] | Not Active | Not Active | Not Active | Not Active | Not Active | Not Active | Not Active | Not Active | Not Active | – | – | – | – | –
Oc1ccc(OCc2ccccc2)cc1 [MONOBENZONE] | Not Active | Not Active | Not Active | Not Active | Not Active | Not Active | Not Active | Not Active | – | – | – | 1020 | – | –
CC(C)(Oc1ccc(C2CCCc3ccccc32)cc1)C(=O)O (configuration not stated) [NAFENOPIN] | Not Active | Not Active | Not Active | Not Active | Not Active | Not Active | Not Active | Not Active | Not Active | – | – | – | – | –
CC(C)[C@H]1CC[C@H](C(=O)N[C@H](Cc2ccccc2)C(=O)O)CC1 [NATEGLINIDE] | Not Active | Not Active | Not Active | Not Active | Not Active | Not Active | Not Active | Not Active | Not Active | – | – | – | – | –
CCN[C@@H]1C[C@H](N)[C@@H](O[C@H]2OC(CN)=CC[C@H]2N)[C@H](O)[C@H]1O[C@H]1OC[C@](C)(O)[C@H](NC)[C@H]1O [NETILMICIN] | Not Active | Not Active | Not Active | Not Active | Not Active | Not Active | Not Active | Not Active | Not Active | – | – | – | – | –
COC(=O)C1=C(C)NC(C)=C(C(=O)OCC(C)C)C1c1ccccc1[N+](=O)[O-] (configuration not stated) [NISOLDIPINE] | Not Active | Not Active | Not Active | Not Active | Not Active | Not Active | Not Active | Not Active | Not Active | – | – | – | – | –
CCOC(=O)C1=C(C)NC(C)=C(C(=O)OC)C1c1cccc([N+](=O)[O-])c1 (configuration not stated) [NITRENDIPINE] | Not Active | Not Active | Not Active | Not Active | Not Active | Not Active | Not Active | Not Active | Not Active | – | – | – | – | –
C#C[C@]1(OC(C)=O)CC[C@H]2[C@@H]3CCC4=CC(=O)CC[C@@H]4[C@H]3CC[C@@]21C [NORETHINDRONE ACETATE] | Not Active | Not Active | Not Active | Not Active | Not Active | Not Active | Not Active | Not Active | Not Active | – | – | – | – | –
COc1ccc2[nH]c([S+]([O-])Cc3ncc(C)c(OC)c3C)nc2c1 (configuration not stated) [OMEPRAZOLE] | Not Active | Not Active | Not Active | Not Active | Not Active | Not Active | Not Active | Not Active | Not Active | – | – | – | – | –
Cc1nccn1CC1CCc2c(c3ccccc3n2C)C1=O (configuration not stated) [ONDANSETRON] | Not Active | Not Active | Not Active | Not Active | Not Active | Not Active | Not Active | Not Active | Not Active | – | – | – | – | –
CCn1cc(C(=O)O)c(=O)c2cc(F)c(N3CCN(C)CC3)cc21 [PEFLOXACIN] | Not Active | Not Active | Not Active | Not Active | Not Active | Not Active | Not Active | Not Active | Not Active | – | – | – | – | –
CCCCOc1ccc(OCCCN2CCOCC2)cc1 [PRAMOXINE] | Not Active | Not Active | Not Active | Not Active | Not Active | Not Active | – | – | Not Active | – | – | – | 1030 | 633

Reference: ChEMBL document CHEMBL1909046, “DrugMatrix in vitro pharmacology data”
